Earlier results, collected in patent EP4810022A1, “MICROPARTICLES COMPRISING TIRZEPATIDE OR PHARMACEUTICALLY ACCEPTABLE SALT THEREOF, AND MANUFACTURING METHOD THEREFOR” (Inventage Lab Inc., priority 2024, dated 2025).

What was measured:
[1] = when taken for one year
[2] = reported

Q: For CCCCCCCCCCC[C@@H](C[C@@H]1OC(=O)[C@H]1CCCCCC)OC(=O)[C@H](CC(C)C)NC=O [orlistat], which body weight loss [1] is on record?
A: The body weight loss was “about 4 kg”.

Q: Which side effects [2] does the source give for Cc1c(C(=O)NN2CCCCC2)nn(-c2ccc(Cl)cc2Cl)c1-c1ccc(Cl)cc1 [rimonabant] here?
A: The side effects was “central nervous system side effects”.

Q: Which side effects [2] does the source give for CC(C)CC(N(C)C)C1(c2ccc(Cl)cc2)CCC1 (stereo not drawn) [sibutramine] here?
A: Its side effects is “cardiovascular side effects”.
